Reference: publication PMC8639922, “KSHV transactivator-derived small peptide traps coactivators to attenuate MYC and inhibits leukemia and lymphoma cell growth” (Communications Biology, 2021)
Square brackets hold non-standard residues; d marks the D form. Peptide text beside a SMILES is read from it. Orn = NCCC[C@H](N)C(=O)O; βAla = NCCC(=O)O

Tested on: MYC promoter and putative enhancer regions
Assay: CUT&RUN qPCR, coactivator complex recruitment (PolII, BRD4, SMARCA4)
Type: cell-based, human
Text: We next examined the molecular mechanism of MYC down-regulation by VGN50. We first utilized Cleavage under targets & release using nuclease (CUT&RUN)-sequencing to examine histone modifications that are known to be associated with enhancers in order to map putative MYC enhancer regions in PEL cells (Fig. 5a). Genome-wide CUT&RUN studies identified putative enhancer and promoter regulatory regions that are marked by H3K27Ac, H3K4me1, POLR2A (RNAPII), BRD4, and SMARCC1, a component of the SWI/SNF complex (Fig. 1b and 5a). The identified putative MYC enhancers were also in good agreement with previous ChIP Hi-C[53] and ChIP-seq data sets[54]. Specific primer pairs were then designed to amplify the respective enhancer regions and to examine regulation of coactivator complex recruitment by VGN50.
Fig. 5 A molecular mechanism of VGN50-mediated MYC-down-regulation. a Cleavage under targets & release using nuclease (CUT&RUN). CUT&RUN was performed with BCBL-1 and BC-1 with the indicated antibodies. Enrichment of active histone modifications, and occupancies of RNAPII and SWI/SNF components at the MYC genomic region are shown as peaks. One of the biological duplicate samples for the BCBL-1 cell line is presented. […] The MYC promoter, enhancer, and negative control regions used for qPCR analyses are indicated with shading. The positions of the MYC coding region, CASC11 coding region, and long non-coding RNA, PVT1, MIR1208 are shown in the panel. b VGN50 inhibits coactivator complex recruitment and c reduces H3K27Ac modification. qPCR is used to examine enrichment of DNA fragments in the presence of VGN50 or mutant peptide (24 μM). Peptide was applied 1 h prior to processing samples for CUT&RUN to replicate SLAM-seq experimental conditions. Non-specific IgG control was also included and enrichment with IgG control at each genomic region was set as 1 for b, and spiked-in luciferase plasmid DNA was used for additional internal control for c. d Formation of a larger protein complex with VGN50. Sucrose gradient sedimentation was used to monitor changes in protein complex formation in the presence of VGN50. The experiment flow chart is shown at the top of this panel. Fractions were collected from top (#1) to bottom (#23/24). Sample #24 without peptide is a smaller fraction of residual samples. Immunoblotting was performed on the odd number samples and the remaining fraction (#24 for no peptide sample) and probed with Flag-tagged SWI/SNF components (SMARCA4, SMARCC2, and SMARCB1). The position of each protein component based on molecular size is indicated. e KSHV K-Rta colocalizes with SWI/SNF components in reactivating BCBL-1 cells. TREx-BCBL-1 cells were triggered for reactivation by treatment with Dox and TPA for 28 h and stained with the indicated antibodies. Images were acquired with Keyence fluorescence microscopy. f A model for VGN50 molecular action. A model depicting the putative molecular action of VGN50 is presented. Coactivator complexes are dynamically assembled on enhancer and promoter regions via transcription factor binding. VGN50, an IDR fragment derived from an exceptionally potent viral transactivator, flexibly interacts with components of coactivators and traps them, thus reduces the available resources for cellular enhancers to activate MYC promoters.
CUT&RUN[72] was performed essentially by following the online protocol developed by Dr. Henikoff’s lab with a few modifications to fit our needs. Cells were washed with PBS and wash buffer [20 mM HEPES-KOH pH 7.5, 150 mM NaCl, 0.5 mM Spermidine (Sigma, S2626), and proteinase inhibitor (Roche)]. After removing the wash buffer, cells were captured on magnetic concanavalin A (ConA) beads (Polysciences, PA, USA) in the presence of CaCl2. […]

[1] = MYC region E1, peptide 24 μM 1 h, IgG set as 1, replicate 1
[2] = MYC region E1, peptide 24 μM 1 h, IgG set as 1, replicate 2
[3] = MYC region E1, peptide 24 μM 1 h, IgG set as 1, replicate 3
[4] = MYC region E2, peptide 24 μM 1 h, IgG set as 1, replicate 1
[5] = MYC region E2, peptide 24 μM 1 h, IgG set as 1, replicate 2
[6] = MYC region E2, peptide 24 μM 1 h, IgG set as 1, replicate 3
[7] = MYC region E3, peptide 24 μM 1 h, IgG set as 1, replicate 1
[8] = MYC region E3, peptide 24 μM 1 h, IgG set as 1, replicate 2
[9] = MYC region E3, peptide 24 μM 1 h, IgG set as 1, replicate 3
[10] = MYC region P1, peptide 24 μM 1 h, IgG set as 1, replicate 1
[11] = MYC region P1, peptide 24 μM 1 h, IgG set as 1, replicate 2
[12] = MYC region P1, peptide 24 μM 1 h, IgG set as 1, replicate 3
[13] = Myc Control region, peptide 24 μM 1 h, IgG set as 1, replicate 1
[14] = Myc Control region, peptide 24 μM 1 h, IgG set as 1, replicate 2
[15] = Myc Control region, peptide 24 μM 1 h, IgG set as 1, replicate 3

Structure (SMILES): CC(C)C[C@H](NC(=O)CCNC(=O)[C@H](CCCNC(=N)N)NC(=O)[C@H](CCCNC(=N)N)NC(=O)[C@H](CCCNC(=N)N)NC(=O)[C@H](CCCN)NC(=O)[C@H](CCCNC(=N)N)NC(=O)[C@H](CCCNC(=N)N)NC(=O)[C@H](CCCCN)NC(=O)[C@H](CCCCN)NC(=O)[C@H](N)CCCNC(=N)N)C(=O)N[C@@H](CO)C(=O)N[C@@H](CO)C(=O)N[C@@H](C)C(=O)N[C@@H](C)C(=O)N[C@@H](C)C(=O)NCC(=O)N[C@@H](CC(C)C)C(=O)N[C@@H](Cc1ccc(O)cc1)C(=O)N[C@@H](CCC(N)=O)C(=O)N[C@@H](CC(C)C)C(=O)N[C@@H](CC(=O)O)C(=O)N[C@H](C(=O)O)[C@@H](C)O [Mt-P] (H-[dR]KKRR[Orn]RRR[βAla]LSSAAAGLYQLDT-OH; N-terminus and C-terminus assumed)
- BRD4 enrichment, CUT&RUN qPCR [1]: 3.57
- PolII enrichment, CUT&RUN qPCR [1]: 2.89
- SMARCA4 enrichment, CUT&RUN qPCR [1]: 1.44
- BRD4 enrichment, CUT&RUN qPCR [2]: 3.47
- PolII enrichment, CUT&RUN qPCR [2]: 2.18
- SMARCA4 enrichment, CUT&RUN qPCR [2]: 1.11
- BRD4 enrichment, CUT&RUN qPCR [3]: 3.30
- PolII enrichment, CUT&RUN qPCR [3]: 2.41
- SMARCA4 enrichment, CUT&RUN qPCR [3]: 1.32
- BRD4 enrichment, CUT&RUN qPCR [4]: 6.92
- PolII enrichment, CUT&RUN qPCR [4]: 9.68
- SMARCA4 enrichment, CUT&RUN qPCR [4]: 2.57
- BRD4 enrichment, CUT&RUN qPCR [5]: 6.75
- PolII enrichment, CUT&RUN qPCR [5]: 10.09
- SMARCA4 enrichment, CUT&RUN qPCR [5]: 2.47
- BRD4 enrichment, CUT&RUN qPCR [6]: 7.28
- PolII enrichment, CUT&RUN qPCR [6]: 9.27
- SMARCA4 enrichment, CUT&RUN qPCR [6]: 2.05
- BRD4 enrichment, CUT&RUN qPCR [7]: 7.28
- PolII enrichment, CUT&RUN qPCR [7]: 10.61
- SMARCA4 enrichment, CUT&RUN qPCR [7]: 2.01
- BRD4 enrichment, CUT&RUN qPCR [8]: 6.68
- PolII enrichment, CUT&RUN qPCR [8]: 9.91
- SMARCA4 enrichment, CUT&RUN qPCR [8]: 2.39
- BRD4 enrichment, CUT&RUN qPCR [9]: 7.58
- PolII enrichment, CUT&RUN qPCR [9]: 10.57
- SMARCA4 enrichment, CUT&RUN qPCR [9]: 1.42
- BRD4 enrichment, CUT&RUN qPCR [10]: 8.00
- PolII enrichment, CUT&RUN qPCR [10]: 18.06
- SMARCA4 enrichment, CUT&RUN qPCR [10]: 2.48
- BRD4 enrichment, CUT&RUN qPCR [11]: 8.20
- PolII enrichment, CUT&RUN qPCR [11]: 18.31
- SMARCA4 enrichment, CUT&RUN qPCR [11]: 2.51
- BRD4 enrichment, CUT&RUN qPCR [12]: 7.99
- PolII enrichment, CUT&RUN qPCR [12]: 17.86
- SMARCA4 enrichment, CUT&RUN qPCR [12]: 2.36
- BRD4 enrichment, CUT&RUN qPCR [13]: 2.07
- PolII enrichment, CUT&RUN qPCR [13]: 2.07
- SMARCA4 enrichment, CUT&RUN qPCR [13]: 1.30
- BRD4 enrichment, CUT&RUN qPCR [14]: 1.88
- PolII enrichment, CUT&RUN qPCR [14]: 1.88
- SMARCA4 enrichment, CUT&RUN qPCR [14]: 1.17
- BRD4 enrichment, CUT&RUN qPCR [15]: 1.71
- PolII enrichment, CUT&RUN qPCR [15]: 1.71
- SMARCA4 enrichment, CUT&RUN qPCR [15]: 1.15
